In publication PMC11420946, “An Engineered Nisin Analogue with a Hydrophobic Moiety Attached at Position 17 Selectively Inhibits Enterococcus faecium Strains” (ACS Chemical Biology, 2024):
In brackets after ≈: the same amount, converted by molar mass.

Tests used:
Enterococcus faecium = assay: Agar well diffusion assay against Enterococcus faecium; assay type: cell-based; settings: for Antibacterial activity against Enterococcus faecium (in words): Figure 5, HPLC-purified peptide, 30 μL of 0.1 mg mL^–1 per well
Method: (§1) To confirm that this procedure yields the modified nisin and at high purity, HPLC analysis of purified 47 was performed (Figure S2). Based on the area of the peaks, the purity of 47 is 96%. Subsequently, 30 μL of 0.1 mg mL^–1 purified compound was added to the well to assess their activity.
(§2) Cultures grown overnight were introduced into 0.8% LB agar for Listeria monocytogenes or GM17 agar for Enterococcus faecium at a temperature of 45 °C, reaching a final concentration of 0.1% (v/v). Subsequently, 30 mL of the mixture was poured onto the plate. Upon solidification of the agar, 8 mm wells were created, and 30 μL of the aforementioned clicked solutions was spotted into the wells. The agar plate underwent overnight incubation at 37 °C followed by measurement of inhibition zones. By comparing the antimicrobial impact of the click chemistry products in this screening assay, we assume that the yields of the different reactions are similar. Zone diameters were recorded in millimeters, with the zone area (πr^2) minus the well area (πr^2) measured in millimeters.[44]

Listeria monocytogenes = assay: Agar well diffusion assay against Listeria monocytogenes; assay type: cell-based; settings: Figure 4, second round; 30 μL click reaction solution in 8 mm well, LB agar, overnight 37 °C; triplicate
Method: as §1, §2

E. faecium LMG11423 = assay: Spot-on-lawn assay; assay type: cell-based; settings: triplicate
[1] = tested on: E. faecium ATCC E1321 (AGRE); assay: Spot-on-lawn assay; assay type: cell-based; settings: triplicate
[2] = tested on: E. faecium ATCC E1162 (ARE); assay: Spot-on-lawn assay; assay type: cell-based; settings: triplicate
[3] = tested on: E. faecium LMG16003 (VRE); assay: Spot-on-lawn assay; assay type: cell-based; settings: triplicate
[4] = tested on: E. faecium ATCC U0317 (ACRE); assay: Spot-on-lawn assay; assay type: cell-based; settings: triplicate
[5] = tested on: E. faecalis LMG16216 (VRE); assay: Spot-on-lawn assay; assay type: cell-based; settings: triplicate
S. aureus LMG10147 = assay: Spot-on-lawn assay; assay type: cell-based; settings: triplicate
[6] = tested on: S. aureus LMG15975 (MRSA); assay: Spot-on-lawn assay; assay type: cell-based; settings: triplicate
B. cereus CH-85 = assay: Spot-on-lawn assay; assay type: cell-based; settings: triplicate
[7] = tested on: L. monocytogenes LMG10470; assay: Spot-on-lawn assay; assay type: cell-based; settings: triplicate
L. monocytogenes TT82E = assay: Spot-on-lawn assay; assay type: cell-based; settings: triplicate
Escherichia coli CECT101 = assay: Spot-on-lawn assay; assay type: cell-based; settings: triplicate
[8] = tested on: Enterococcus faecium LMG16003 (VRE); assay type: cell-based; settings: as stated in the abstract
Method: Minimal inhibitory concentration (MIC) values were determined through broth microdilution following standard guidelines.[29]

human red blood cells = assay: Hemolysis assay; assay type: cell-based; settings: 200 mg/L versus MIC
Method: Considering the potential therapeutic application of a bacteriocin, ensuring its safety is of critical importance. Previous studies have identified hemolytic activities in certain bacteriocins, such as listeriolysin S from Listeria monocytogenes([33]) and cytolysin from Enterococcus faecalis.[34] […] Therefore, a close evaluation of the safety of new bacteriocins is essential. In this study, a hemolytic activity assay was conducted to assess the safety of compounds 16 and 47. In this assay, human blood cells were incubated with varying concentrations of compound 16, compound 47, and nisin, ranging from 0.39 to 200 mg/L. Following a 1 h incubation at 37 °C, we measured the OD414 of the supernatants, and hemolytic activities were calculated, with 10% Triton X-100 serving as a positive control.
Erythrocytes were sourced from a healthy human volunteer donor, and whole human blood was subjected to centrifugation at 600g for 15 min. Subsequently, plasma was removed, and the erythrocytes were subjected to three washes with PBS (pH 7) by centrifugation at 600g for 15 min each. […] The supernatant was transferred to a 96-well plate, and absorbance was measured at a wavelength of 414 nm using a Thermo Scientific Varioskan LUX multimode microplate reader. The absorbance, relative to the positive control treated with 10% Triton X-100, was defined as the percentage of hemolysis.

chymotrypsin = assay: Effect of proteolytic enzymes on antibacterial activity: chymotrypsin; settings: 30 μL peptide 1 mg mL^–1 in agar well with 1 mg mL^–1 chymotrypsin, pH 7.2, overnight 30 °C; read-out inhibition zone area on L. lactis MG1363 versus no-enzyme control; three independent experiments
Method: (§3) Next the resistance against the proteolytic enzymes trypsin, chymotrypsin, and protease K was investigated by adding these enzymes in separate experiments to assay wells followed by overnight incubation at 30 °C.
(§4) The impact of proteolytic enzymes and temperature on antimicrobial activity was investigated using the representative strain L. lactis MG1363 through the agar well diffusion assay. Thirty microliters of the HPLC purified peptide (1 mg mL^–1) was directly introduced into the agar well containing a final concentration of 1 mg mL^–1 proteolytic enzymes (pH 7.2) or no proteolytic enzyme (control). The plates were incubated overnight at 30 °C followed by the measurement of inhibition zones. Temperature stability was assessed by incubating the peptide at 22, 55, 70, and 90 °C for the specified duration.

proteinase K = proteinase K (Parengyodontium album, UniProt P06873); assay: Effect of proteolytic enzymes on antibacterial activity: proteinase K; settings: 30 μL peptide 1 mg mL^–1 in agar well with 1 mg mL^–1 proteinase K, pH 7.2, overnight 30 °C; read-out inhibition zone area on L. lactis MG1363 versus no-enzyme control; three independent experiments
Sequence of proteinase K (P06873 106-384): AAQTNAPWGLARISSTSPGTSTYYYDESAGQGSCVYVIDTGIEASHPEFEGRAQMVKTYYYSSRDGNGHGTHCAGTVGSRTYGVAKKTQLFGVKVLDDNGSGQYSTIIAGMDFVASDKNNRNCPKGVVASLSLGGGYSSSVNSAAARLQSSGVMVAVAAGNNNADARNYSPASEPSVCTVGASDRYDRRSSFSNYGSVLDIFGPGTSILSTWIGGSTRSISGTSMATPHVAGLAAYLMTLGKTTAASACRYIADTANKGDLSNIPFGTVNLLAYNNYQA
Method: as §3, §4

[9] = Effect of temperature on antibacterial activity (thermal stability); assay type: physicochemical; settings: higher temperatures of 22, 55, 70, 90 °C, 8 h storage; read-out inhibition zone area on L. lactis MG1363 relative to 0 h; three independent experiments
Method: Figure S4. Investigation of the thermal stability profile of nisin (compound 1) and compound 47. Thermal stability was evaluated across a temperature range from 22 to 90 °C within an 8-hour incubation period.
Relative antimicrobial activity of the peptides following exposure to different temperatures. The relative activity was determined by calculating the area at different time points divided by the area at the start point (labeled 0 h), multiplied by 100%. Three independent experiments were conducted.

[10] = Spot-on-lawn assay to measure peptide-lipid II complex formation; assay type: binding; settings: lipid II 300 μM, 2 μL spotted at edge of halo; lawns of E. faecium and S. aureus, overnight 37 °C
Method: To assess the interaction between the HPLC purified peptide and lipid II, an overnight culture was introduced into 0.8% GM17 medium for E. faecium or LB medium for S. aureus (w/v, temperature 45 °C) at a final concentration of 1% (v/v). Subsequently, this mixture was evenly distributed onto 10 mL plates. The binding affinity of the peptide and lipid II was further examined by applying purified lipid II (300 μM, 2 μL) to the periphery of the antibiotic inhibition halo. Briefly, HPLC purified antimicrobials were initially applied to the agar plate, and once the antimicrobial solution drops had dried, lipid II was spotted along the edge of the inhibition halo. The plates were then incubated overnight at 37 °C.

SMILES	Antibacterial activity against Enterococcus faecium (in words) (Enterococcus faecium)	Antimicrobial activity, diameter rating (E. faecium LMG11423)	Antimicrobial activity, diameter rating [1]	Antimicrobial activity, diameter rating [2]	Antimicrobial activity, diameter rating [3]	Antimicrobial activity, diameter rating [4]	Antimicrobial activity, diameter rating [5]	Antimicrobial activity, diameter rating (S. aureus LMG10147)	Antimicrobial activity, diameter rating [6]	Antimicrobial activity, diameter rating (B. cereus CH-85)	Antimicrobial activity, diameter rating [7]	Antimicrobial activity, diameter rating (L. monocytogenes TT82E)	Antimicrobial activity, diameter rating (Escherichia coli CECT101)	further results
C=C(NC(=O)[C@@H](NC(=O)[C@H](Cc1c[nH]cn1)NC(=O)[C@@H](NC(=O)[C@H](CO)NC(=O)[C@@H]1CS[C@@H](C)[C@H]2NC(=O)[C@H](C)NC(=O)[C@H](NC(=O)[C@H](CCCCN)NC(=O)[C@@H](NC(=O)[C@H](CC(N)=O)NC(=O)[C@@H]3CS[C@@H](C)[C@@H](NC(=O)[C@H](CCCCN)NC(=O)[C@@H]4CS[C@@H](C)[C@@H](NC(=O)[C@@H]5CSC[C@@H](NC(=O)/C(=C/C)NC(=O)[C@@H](N)[C@@H](C)CC)C(=O)N[C@@H]([C@@H](C)CC)C(=O)NC(=C)C(=O)N[C@@H](CC(C)C)C(=O)N5)C(=O)N5CCC[C@H]5C(=O)NCC(=O)N4)C(=O)NCC(=O)N[C@@H](C)C(=O)N[C@@H](CC(C)C)C(=O)N[C@@H](CCn4cc(CCCCCCCC)nn4)C(=O)NCC(=O)N3)C(C)C)[C@H](C)SC[C@H](NC2=O)C(=O)N[C@@H](Cc2c[nH]cn2)C(=O)N1)[C@@H](C)CC)C(C)C)C(=O)N[C@@H](CCCCN)C(=O)O [compound 16]	high potency of nisin against Enterococcus faecium was retained	+++++ (16–20 mm, +++++)	++++ (12–16 mm, ++++)	++++ (12–16 mm, ++++)	++++ (12–16 mm, ++++)	++++ (12–16 mm, ++++)	++ (4–8 mm, + +)	+ (0–4 mm, +)	+ (0–4 mm, +)	++ (4–8 mm, + +)	++ (4–8 mm, + +)	++ (4–8 mm, + +)	+ (0–4 mm, +)	Area1: area of the inhibition zone minus the well area, Enterococcus faecium (Enterococcus faecium; Figure 4, second round, 30 μL click reaction solution in 8 mm well, GM17 agar, overnight 37 °C, triplicate): 51 mm^2; Area2: area of the inhibition zone minus the well area, Listeria monocytogenes (Listeria monocytogenes): 19 mm^2
C=C(NC(=O)[C@@H](NC(=O)[C@H](Cc1c[nH]cn1)NC(=O)[C@@H](NC(=O)[C@H](CO)NC(=O)[C@@H]1CS[C@@H](C)[C@H]2NC(=O)[C@H](C)NC(=O)[C@H](NC(=O)[C@H](CCCCN)NC(=O)[C@@H](NC(=O)[C@H](CC(N)=O)NC(=O)[C@@H]3CS[C@@H](C)[C@@H](NC(=O)[C@H](CCCCN)NC(=O)[C@@H]4CS[C@@H](C)[C@@H](NC(=O)[C@@H]5CSC[C@@H](NC(=O)/C(=C/C)NC(=O)[C@@H](N)[C@@H](C)CC)C(=O)N[C@@H]([C@@H](C)CC)C(=O)NC(=C)C(=O)N[C@@H](CC(C)C)C(=O)N5)C(=O)N5CCC[C@H]5C(=O)NCC(=O)N4)C(=O)NCC(=O)N[C@@H](C)C(=O)N[C@@H](CC(C)C)C(=O)N[C@@H](CCn4cc(CCCc5ccccc5)nn4)C(=O)NCC(=O)N3)C(C)C)[C@H](C)SC[C@H](NC2=O)C(=O)N[C@@H](Cc2c[nH]cn2)C(=O)N1)[C@@H](C)CC)C(C)C)C(=O)N[C@@H](CCCCN)C(=O)O [compound 47]	high potency of nisin against Enterococcus faecium was retained	+++++ (16–20 mm, +++++)	++++ (12–16 mm, ++++)	++++ (12–16 mm, ++++)	++++ (12–16 mm, ++++)	++++ (12–16 mm, ++++)	++ (4–8 mm, + +)	+ (0–4 mm, +)	+ (0–4 mm, +)	++ (4–8 mm, + +)	++ (4–8 mm, + +)	++ (4–8 mm, + +)	+ (0–4 mm, +)	MIC value against E. faecium strains [8]: 3.8 µg/mL (≈ 1.1 µM); Concentration with minimal hemolytic activity (200 mg/L) relative to MIC against Enterococcus faecium (human red blood cells): 50 fold; Loss in antimicrobial activity after exposure to chymotrypsin (chymotrypsin): 16%; Loss in antimicrobial activity after exposure to proteinase K (proteinase K): 77%; Loss in antimicrobial activity on storage at elevated temperature [9]: Less than 40%; Binding to lipid II (effect of added purified lipid II on the inhibition halo) [10]: retained its ability to bind to lipid II
